Laboratory results as given in patent US10981932B2, “Macrocyclic indole derivatives” (Bayer Aktiengesellschaft, priority 2016, dated 2021).
“And” between values parts separate entries of the source, which are not always exact repeats. Equal entries are not always repeated. Structures can show the parent of a compound that is named as a salt. Where two headings read alike, the source gives them in different places.

Legend:
SUDHL10 [1] = experiment: Induction of caspase-3/7 activity (Caspase-Glo 3/7), SUDHL10; assay type: cell-based; settings: caspase-3/7 induction, SUDHL10 cells, 3 h treatment, median
How it was run: (§1)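 Apoptosis induction measured as caspase-3/7 activity (Caspase-Glo 3/7) in DLBCL lines after 3 h treatment at 37 °C; EC50 derived relative to the reference compound's maximal induction, with C0 fixed at 1.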

SUDHL10 [2] = experiment: Induction of cytotoxicity (CellTiter-Glo, 5 h), SUDHL10
Description: Therefore, cytotoxicity assays were run in parallel in SUDHL5 and SUDHL10 cells.
The different cell lines were plated in culture medium (RPMI 1640 [GIBCO #22400-089]supplemented with 10% Fetal Bovine Serum) at a density of 3.300 cells in 30 μl/well in a sterile, solid black, flat bottom, polystyrene, TC-treated 384-well microplate (Corning #3571) using Multidrop Combi Reagent Dispenser. As a control, medium without cells was also added to the plate. Cells were incubated in a humidified incubator at 37° C. overnight. On the next day, the cells were treated with compounds (stock solution, 10 mM in DMSO) using the HP D300 Digital Dispenser in a concentration range of 3.3×10e-5 M (33 μM) to 5×10e-9 M (5 nM) in a single-dot curve with at least 16 dilutions and a DMSO concentration of 0.33%. Rim wells were excluded. The cells were incubated for 5 h hours in a humidified incubator at 37° C. After this incubation, 30 μl of CellTiter-Glo@ Luminescent Cell Viability reagent (Promega, G7573) was added to each well using the Multidrop Combi Reagent Dispenser, followed by 15 min incubation on a shaker at room temperature. Finally, luminescence was read at 0.1 ms, with a gain of 3000 using the PHERAstar FS microplate reader (BMG Labtech).
The Bella DRC Master Sheet was used to calculate IC50s, with fixed CI=0 and C0=1.

MCL-1 = MCL-1 (Homo sapiens, UniProt Q07820); experiment: Protein-protein interaction assay MCL-1/Noxa BH3 peptide (MCL-1 assay), TR-FRET; assay type: binding; settings: MBP-MCL-1 / Noxa BH3-derived peptide, median
How it was run: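 Inhibition values were normalized between DMSO controls with all reagents and controls lacking MCL-1. The binding competition used 1 nM MBP-MCL-1 in pH 7 Tris buffer containing 50 mM KF and 100 mM NaCl, with a 10 min compound preincubation at 22 °C.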

SUDHL5 [3] = experiment: Induction of caspase-3/7 activity (Caspase-Glo 3/7), SUDHL5; assay type: cell-based; settings: caspase-3/7 induction, SUDHL5 cells, 3 h treatment, median
How it was run: as §1

SUDHL10 [4] = experiment: Anti-proliferative effect (CellTiter-Glo, 72 h), SUDHL10; assay type: cell-based; settings: SUDHL10 cells, antiproliferation, median, read-out: Antiproli SUDHL10 [M] (median)
How it was run: (§2)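 After seeding, one plate is read right away by CellTiter-Glo luminescence to fix time zero. The treated plates stay at 37 °C in humidified air for 72 h and are then measured with the same reagent and 10 min incubation.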

SUDHL5 [5] = experiment: Anti-proliferative effect (CellTiter-Glo, 72 h), SUDHL5; assay type: cell-based; settings: SUDHL5 cells, antiproliferation, median, read-out: Antiproli SUDHL5 [M] (median)
How it was run: as §2

SUDHL5 [6] = experiment: Induction of cytotoxicity (CellTiter-Glo, 5 h), SUDHL5
A2780 = experiment: Anti-proliferative effect (CellTiter-Glo, 72 h), A2780; assay type: cell-based; settings: A2780 cells, median, read-out: IC50 antiproliferation assay A2780 [M] (median)
How it was run: as §2

[7] = read-out: Cytotox SUDHL10 [M] (median), SUDHL10 cells, cytotoxicity induction, CellTiter-Glo, 5 h incubation, median
[8] = read-out: Cytotox SUDHL5 [M] (median), SUDHL5 cells, cytotoxicity induction, CellTiter-Glo, 5 h incubation, median
[9] = Homo sapiens, SU-DHL10, 5 h, read-out: Cytotox SUDHL10 [M] (median), SUDHL10 cells, cytotoxicity induction, CellTiter-Glo, 5 h incubation, median
[10] = Homo sapiens, SU-DHL10, 72 h, 72 h incubation
[11] = Homo sapiens, SU-DHL-5, 72 h, 72 h incubation
[12] = Homo sapiens, SU-DHL-5, 5 h, read-out: Cytotox SUDHL5 [M] (median), SUDHL5 cells, cytotoxicity induction, CellTiter-Glo, 5 h incubation, median

Chain of MCL-1 (Q07820 whole entry): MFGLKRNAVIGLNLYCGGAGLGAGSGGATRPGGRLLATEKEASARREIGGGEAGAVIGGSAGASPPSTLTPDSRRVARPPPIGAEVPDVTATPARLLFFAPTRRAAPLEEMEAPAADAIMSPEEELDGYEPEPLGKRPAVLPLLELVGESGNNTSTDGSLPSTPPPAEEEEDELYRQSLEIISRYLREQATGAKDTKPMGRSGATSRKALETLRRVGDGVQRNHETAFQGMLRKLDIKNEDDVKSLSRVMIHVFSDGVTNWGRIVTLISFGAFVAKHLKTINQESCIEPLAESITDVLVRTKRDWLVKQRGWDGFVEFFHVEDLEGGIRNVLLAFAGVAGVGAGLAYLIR

EC50 (SUDHL10 [1]; Homo sapiens, SU-DHL10, 3 h)	IC50 (MCL-1)	EC50 (SUDHL5 [3]; Homo sapiens, SU-DHL-5, 3 h)	IC50 (SUDHL10 [4]; Homo sapiens, SU-DHL10, 72 h, 72 h)	IC50 (SUDHL5 [5]; Homo sapiens, SU-DHL-5, 72 h, 72 h)	IC50 (A2780; Homo sapiens, A2780, 72 h)	EC50 (SUDHL10 [1])	EC50 (SUDHL5 [3])	IC50 (SUDHL10 [4]; 72 h incubation)	IC50 (SUDHL5 [5]; 72 h incubation)	IC50 (SUDHL10 [4]; [10])	IC50 (SUDHL5 [5]; [11])	IC50 (A2780)	Compound	IC50 (SUDHL10 [2]; Homo sapiens, SU-DHL10, 5 h, read-out: Cytotox SUDHL10 [M] (median), SUDHL10 cells, cytotoxicity induction, CellTiter-Glo, 5 h, median)	IC50 (SUDHL5 [6]; Homo sapiens, SU-DHL-5, 5 h, read-out: Cytotox SUDHL5 [M] (median), SUDHL5 cells, cytotoxicity induction, CellTiter-Glo, 5 h, median)	IC50 (SUDHL10 [2]; [7])	IC50 (SUDHL5 [6]; [8])	IC50 (SUDHL10 [2]; [9])	IC50 (SUDHL5 [6]; [12])
> 33 µM	1.08 µM	> 33 µM	1.9e-05 M	2.46e-05 M	> 3.3e-05 M	–	–	–	–	–	–	–	Cn1nc(COc2ccc(NS(C)(=O)=O)cc2)c2c1COCCCCn1c(C(=O)O)c(CCCOc3cccc4ccccc34)c3cccc-2c31 (single isomer, unassigned; enantiomer 1) [Example 322, 1-methyl-3-({4-[((methylsulfonyl)amino]phenoxy}methyl)-7-[3-(naphthalen-1-yloxy)propyl]-1,10,11,12,13,15-hexahydropyrazolo[4′,3′:9,10][1,6]oxazacycloundecino[8,7,6-hi]indole-8-carboxylic Acid-N-ethylethanamine Salt (Enantiomer 1)]	> 3.3e-05 M	> 3.3e-05 M	–	–	–	–
–	0.0424 µM	–	–	–	> 3.3e-05 M	> 33 µM	> 33 µM	1.71e-05 M	1.61e-05 M	–	–	–	COCc1c2c(nn1C)COCCCCn1c(C(=O)O)c(CCCOc3cccc4ccccc34)c3cccc-2c31 (single isomer, unassigned; enantiomer 1) [Example 100, 3-(methoxymethyl)-2-methyl-7-[3-(naphthalen-1-yloxy)propyl]-2,10,11,12,13,15-hexahydropyrazolo[4′,3′:9,10][1,6]oxazacycloundecino[8,7,6-hi]indole-8-carboxylic acid-N-ethylethanamine Salt (Enantiomer 1)]	–	–	> 3.3e-05 M	> 3.3e-05 M	–	–
6.94 µM	0.0028 µM	1.72 µM	–	–	2.25e-05 M	–	–	–	–	7.48e-06 M	3.35e-06 M	–	CCc1nn(CCN2CCOCC2)c2c1-c1cccc3c(CCCOc4cccc5ccccc45)c(C(=O)O)n(c13)CCCCOC2 (racemic) [Example 198, (rac)-3-ethyl-1-[2-(morpholin-4-yl)ethyl]-7-[3-(naphthalen-1-yloxy)propyl]-1,10,11,12,13,15-hexahydropyrazolo[4′,3′:9,10][1,6]oxazacycloundecino[8,7,6-hi]indole-8-carboxylic Acid]	–	–	–	–	6.77e-06 M	2.05e-06 M
–	0.00735 µM	–	–	–	1.82e-05 M	15.1 µM	5.09 µM	6.28e-06 M	–	–	7.95e-06 M	–	Cn1nc2c(c1C(F)(F)F)-c1cccc3c(CCCOc4cccc5ccccc45)c(C(=O)O)n(c13)CCCCOC2 (single isomer, unassigned; enantiomer 1) [Example 194, 2-methyl-7-[3-(naphthalen-1-yloxy)propyl]-3-(trifluoromethyl)-2,10,11,12,13,15-hexahydropyrazolo[4′,3′:9,10][1,6]oxazacycloundecino[8,7,6-hi]indole-8-carboxylic Acid (Enantiomer 1)]	–	–	1.63e-05 M	5.46e-06 M	–	–
22 µM	0.00788 µM	10.9 µM	–	–	2.29e-05 M	–	–	–	–	9.7e-06 M	9.3e-06 M	> 3.3e-05 M	O=C(O)c1c(CCCOc2cccc3ccccc23)c2cccc3c2n1CCCCOCc1nn2c(c1-3)COCC2 (racemic) [Example 250, (rac)-1-[3-(naphthalen-1-yloxy)propyl]-4,5,6,7,12,13-hexahydro-9H,15H-[1,4]oxazino[4″,3″:1′,5′]pyrazolo[4′,3′:9,10][1,6]oxazacycloundecino[8,7,6-hi]indole-2-carboxylic Acid]	–	–	–	–	2.18e-05 M	1.33e-05 M
–	0.122 µM	–	–	–	–	> 33 µM	> 33 µM	6.02e-06 M	1.91e-05 M	–	–	1.75e-05 M	Cn1nc(CN2CC(F)(F)C2)c2c1COCCCCn1c(C(=O)O)c(CCCOc3cccc4ccccc34)c3cccc-2c31 (single isomer, unassigned; enantiomer 2) [Example 182, 3-[(3,3-difluoroazetidin-1-yl)methyl]-1-methyl-7-[3-(naphthalen-1-yloxy)propyl]-1,10,11,12,13,15-hexahydropyrazolo[4′,3′:9,10][1,6]oxazacycloundecino[8,7,6-hi]indole-8-carboxylic acid-N-ethylethanamine Salt (Enantiomer 2)]	–	–	> 3.3e-05 M	> 3.3e-05 M	–	–
18.6 µM	0.00496 µM	–	–	–	2.06e-05 M	–	6.62 µM	3.91e-06 M	–	–	1.27e-05 M	–	Cc1cc(OCCCc2c(C(=O)O)n3c4c(cccc24)-c2c(C)nn(C)c2COCCCC3)cc(C)c1Cl (single isomer, unassigned; enantiomer 1) [Example 010, 7-[3-(4-chloro-3,5-dimethylphenoxy)propyl]-1,3-dimethyl-1,10,11,12,13,15-hexahydropyrazolo[4′,3′:9,10][1,6]oxazacycloundecino[8,7,6-hi]indole-8-carboxylic acid-N-ethylethanamine Salt (Enantiomer 1)]	–	–	–	7.4e-06 M	2.27e-05 M	–
> 33 µM	0.0181 µM	12.8 µM	–	–	> 3.3e-05 M	30 µM	–	> 3.3e-05 M and 2.21e-05 M	–	–	9.37e-06 M	–	COCc1nn(C)c2c1-c1cccc3c(CCCOc4cccc5ccccc45)c(C(=O)O)n(c13)CCCCCOC2 (single isomer, unassigned; enantiomer 1) [Example 178, 3-(methoxymethyl)-1-methyl-7-[3-(naphthalen-1-yloxy)propyl]-1,11,12,13,14,16-hexahydro-1 OH-pyrazolo[3′,4′:3,4][1,7]oxazacyclododecino[5,6,7-h]indole-8-carboxylic acid-N-ethylethanamine Salt (Enantiomer 1)]	–	–	–	–	> 3.3e-05 M	1.3e-05 M
> 33 µM	0.00995 µM	26.6 µM	–	–	–	–	–	–	–	7.24e-06 M	2.23e-05 M	> 3.3e-05 M	Cc1cc(OCCCc2c(C(=O)O)n3c4c(cccc24)-c2c(C)nn(C)c2COCCC3)cc(C)c1Cl (single isomer, unassigned; enantiomer 1) [Example 014, 1-[3-(4-chloro-3,5-dimethylphenoxy)propyl]-9,11-dimethyl-5,6,8,9-tetrahydro-4H-pyrazolo[4′,3′:8,9][1,5]oxazecino[7,6,5-hi]indole-2-carboxylic acid-N-ethylethanamine Salt (Enantiomer 1)]	–	–	–	–	> 3.3e-05 M	2.27e-05 M
11.4 µM	0.00681 µM	4.85 µM	–	–	2.47e-05 M	–	–	–	–	7.76e-06 M	5.28e-06 M	–	COc1c2c(nn1C)COCCCCn1c(C(=O)O)c(CCCOc3cccc4ccccc34)c3cccc-2c31 (racemic) [Example 207, (rac)-3-methoxy-2-methyl-7-[3-(naphthalen-1-yloxy)propyl]-2,10,11,12,13,15-hexahydropyrazolo[4′,3′:9,10][1,6]oxazacycloundecino[8,7,6-hi]indole-8-carboxylate]	–	–	–	–	1.08e-05 M	4.45e-06 M
> 33 µM	0.289 µM	> 33 µM	–	–	> 3.3e-05 M	–	–	–	–	> 3.3e-05 M	> 3.3e-05 M	–	CN1CCCn2c(C(=O)O)c(CCCOc3cccc4ccccc34)c3cccc(c32)-c2c(CN3CCOCC3=O)nn(C)c2C1 (racemic) [Example 157, (rac)-7,9-dimethyl-1-[3-(naphthalen-1-yloxy)propyl]-11-[(3-oxomorpholin-4-yl)methyl]-4,5,6,7,8,9-hexahydropyrazolo[3′,4′:7,8][1,5]diazecino[9,10,1-hi]indole-2-carboxylic Acid]	–	–	–	–	> 3.3e-05 M	> 3.3e-05 M
